Test [1] deals with HepG2. Description: Cytotoxicity against human HepG2 cells after 72 hrs by MTT assay. The class given is functional, cell-based. The note with it: HepG2, 72 h. On the technique in general: Tetrazolium assays rely on reduction of a dye to a coloured formazan, in cell work by metabolically active cells.
Test [2] relates to HepG2. Description: Induction of apoptosis in human HepG2 cells assessed as necrotic cells at 0.3 uM after 40 hrs by Annexin-V-FITC/propidium iodide staining based flow cytometry (reference value: 7%). The class given is functional. A general note: Flow cytometry measures light scatter and fluorescence of single cells or particles in a stream.
For test [3], the species on record is Homo sapiens. Description: Inhibition of NADH-ubiquinone oxidoreductase (unknown origin) at 50 uM.
Test [4] relates to HepG2. Description: Induction of apoptosis in human HepG2 cells assessed as live cells at 0.3 uM after 40 hrs by Annexin-V-FITC/propidium iodide staining based flow cytometry (reference value: 82.6%). In kind it is functional.
Test [5] relates to HepG2. Description: Induction of apoptosis in human HepG2 cells assessed as caspase-3 cleavage at 0.1 to 30 uM after 24 hrs by Western blot analysis. The class given is functional, cell-based.
The subject of test [6] is HepG2. Description: Induction of apoptosis in human HepG2 cells assessed as live cells at 3 uM after 40 hrs by Annexin-V-FITC/propidium iodide staining based flow cytometry (reference value: 82.6%). In kind it is functional.
The next test concerns A549. Description: Cytotoxicity against human A549 cells after 72 hrs by MTT assay. The class given is functional, cell-based. Conditions: A549, 72 h.
The subject of another test is L02. Description: Cytotoxicity against human L02 cells after 72 hrs by MTT assay. The class given is cell-based. Conditions: L02, 72 h.
The subject of test [7] is HepG2. Description: Induction of apoptosis in human HepG2 cells assessed as late apoptotic cells at 0.3 uM after 40 hrs by Annexin-V-FITC/propidium iodide staining based flow cytometry (reference value: 7.6%). In kind it is functional.
The test system of test [8] is HepG2. Description: Induction of apoptosis in human HepG2 cells assessed as late apoptotic cells at 3 uM after 40 hrs by Annexin-V-FITC/propidium iodide staining based flow cytometry (reference value: 7.6%). In kind it is functional.
For test [9], the system named is HepG2. Description: Induction of apoptosis in human HepG2 cells assessed as early apoptotic cells at 0.3 uM after 40 hrs by Annexin-V-FITC/propidium iodide staining based flow cytometry (reference value: 2.8%). In kind it is functional.
The species named for test [10] is Homo sapiens. Description: Inhibition of NADH-ubiquinone oxidoreductase (unknown origin).
The test system of test [11] is HepG2. Description: Induction of apoptosis in human HepG2 cells assessed as early apoptotic cells at 3 uM after 40 hrs by Annexin-V-FITC/propidium iodide staining based flow cytometry (reference value: 2.8%). The class given is functional.
Test [12] has as its target AMP-activated protein kinase, AMPK (Homo sapiens) (UniProt P54646+O43741+P54619+Q9UGJ0+Q9Y478+Q13131+Q9UGI9). Description: Activation of AMPK in human HepG2 cells after 24 hrs by Western blot analysis. In kind it is cell-based. (Immunoblotting shows a protein as a band on a membrane.)
Test [13] concerns HepG2. Description: Induction of intracellular ATP depletion in human HepG2 cells at 0.3 uM after 44 hrs by luminescence based spectrophotometric method. In kind it is functional, cell-based.
The subject of test [14] is HepG2. Description: Induction of apoptosis in human HepG2 cells assessed as PARP cleavage at 0.1 to 30 uM after 24 hrs by Western blot analysis. In kind it is functional, cell-based.
In test [15] the test system is HepG2. Description: Reduction in Bcl2 to bax ratio in human HepG2 cells at 0.1 to 30 uM after 24 hrs by Western blot analysis. In kind it is functional, cell-based.
The subject of test [16] is HepG2. Description: Induction of apoptosis in human HepG2 cells assessed as necrotic cells at 3 uM after 40 hrs by Annexin-V-FITC/propidium iodide staining based flow cytometry (reference value: 7%). In kind it is functional.
Test [17] concerns HepG2. Description: Induction of intracellular ATP depletion in human HepG2 cells at 3 uM after 44 hrs by luminescence based spectrophotometric method. In kind it is functional, cell-based.

One may read the IC50 as the concentration that inhibits the measured activity by half. Higher therefore signals weaker potency.

Activity calls are given as the source filed them. The calls are words filed in the database; no cut-off is given here. A value given as a limit tells only on which side of the number the result lay.

For the compound `O=C(COc1ccc2c(=O)c(-c3ccccc3)coc2c1)NC1CCN(Cc2ccccc2)CC1`, the IC50 in the test on HepG2 [1] was above 20 µM.
With `COc1ccc(CN2CCC(NC(=O)C(C)(C)Oc3ccc(-c4cc(=O)c5ccccc5o4)cc3)CC2)cc1`, the Activity worked out at 11% with HepG2 [2]; 80.2% in the test on HepG2 [4]; 53.4% with HepG2 [6]; 7.3% in the test on HepG2 [7]; 0.2% in the test on HepG2 [8]; 1.6% in the test on HepG2 [9]. Further, the Activity is 0% in the test with HepG2 [11], “Dose-dependent effect” in test [12] and 46.4% in the test with HepG2 [16]. For the same compound, in the test listed under Homo sapiens [3], the inhibition result was “Active”. Further, the result in the test on HepG2 [5], with HepG2 [13] and in the test with HepG2 [14] was inactive. Further, the IC50 was found to be 40 µM with A549, 17.6 µM in the test on L02 and 2.8 µM with HepG2 [1]. Also, the inhibition result in the test filed under Homo sapiens [10] was “Dose-dependent effect”. Moreover, the outcome in the test on HepG2 [15] and with HepG2 [17] was Active.
`CC(C)(Oc1ccc(-c2cc(=O)c3ccccc3o2)cc1)C(=O)NC1CCN(Cc2ccccc2)CC1` gave an IC50 in the test with HepG2 [1] above 20 µM.
Same read-out and setting: the value for `O=C(COc1ccc(-c2cc(=O)c3ccccc3o2)cc1)N1CCN(Cc2ccccc2)CC1` was above 20 µM; that for `COc1ccc(CN2CCC(NC(=O)COc3ccc(-c4cc(=O)c5ccccc5o4)cc3)CC2)cc1` was 6.8 µM; that for `O=C(COc1ccc2c(=O)cc(-c3ccccc3)oc2c1)NC1CCN(C(=O)c2ccccc2)CC1` was above 20 µM.
Consider `O=C(COc1ccc2c(=O)cc(-c3ccccc3)oc2c1)NC1CCN(Cc2ccc(C(F)(F)F)cc2)CC1`, for which the IC50 in the test with HepG2 [1] was found to be 7.2 µM.
In turn, `COc1ccc(CN2CCC(NC(=O)COc3ccc4c(=O)c(-c5ccccc5)coc4c3)CC2)cc1` showed an IC50 in the test on HepG2 [1] above 20 µM.
On to `O=C(COc1ccc2c(=O)c(-c3ccccc3)coc2c1)N1CCN(Cc2ccccc2)CC1`, for which the IC50 with HepG2 [1] was above 20 µM.
Regarding `CC(C)(Oc1ccc2c(=O)cc(-c3ccccc3)oc2c1)C(=O)NC1CCN(Cc2ccccc2)CC1`, the IC50 in the test with HepG2 [1] was determined as 14 µM.
Compound `CC(C)(Oc1ccc2c(=O)cc(-c3ccccc3)oc2c1)C(=O)NC1CCN(Cc2ccc(C(F)(F)F)cc2)CC1` had an IC50 in the test with HepG2 [1] above 20 µM.
In turn, `N#Cc1ccc(CN2CCC(NC(=O)COc3ccc4c(=O)c(-c5ccccc5)coc4c3)CC2)cc1` returned an IC50 in the test on HepG2 [1] above 20 µM.
For the compound `COc1ccc(C(=O)C2CCN(C(=O)c3ccc(C(=O)NC4CCN(Cc5ccc(C#N)cc5)CC4)cn3)CC2)cc1`, the IC50 in the test on A549 stood at 19.5 µM; with L02, 25.9 µM; with HepG2 [1], 5.2 µM. Also, the inhibition result in the test filed under Homo sapiens [10] was “Dose-dependent effect”. Also, in test [12], the result was Active.
As for `O=C(COc1ccc(-c2cc(=O)c3ccccc3o2)cc1)NC1CCN(Cc2ccccc2)CC1`, the IC50 with HepG2 [1] came to 15.5 µM.
On the same count and under the same terms, the value for `O=C(COc1ccc2c(=O)cc(-c3ccccc3)oc2c1)NC1CCN(Cc2ccccc2)CC1` was 16.7 µM.
In the test with HepG2 [1], `COc1ccc(CN2CCC(NC(=O)C(C)(C)Oc3ccc4c(=O)cc(-c5ccccc5)oc4c3)CC2)cc1` came in with an IC50 of 8.7 µM.
For `O=C(COc1ccc(-c2cc(=O)c3ccccc3o2)cc1)NC1CCN(C(=O)c2ccccc2)CC1`, the IC50 in the test with HepG2 [1] was above 20 µM.
In turn, `N#Cc1ccc(CN2CCC(NC(=O)COc3ccc4c(=O)cc(-c5ccccc5)oc4c3)CC2)cc1` came in with an IC50 in the test on HepG2 [1] of 9.3 µM.
On the same count and under the same terms, in the case of `CC(C)(Oc1ccc2c(=O)c(-c3ccccc3)coc2c1)C(=O)NC1CCN(Cc2ccccc2)CC1` it was above 20 µM; in that of `N#Cc1ccc(CN2CCC(NC(=O)COc3ccc(-c4cc(=O)c5ccccc5o4)cc3)CC2)cc1`, 6.7 µM; in that of `O=C(COc1ccc2c(=O)cc(-c3ccccc3)oc2c1)N1CCN(Cc2ccccc2)CC1`, above 20 µM.

(Values after ChEMBL document CHEMBL4229436, “Synthesis and biological evaluation of Complex I inhibitor R419 and its derivatives as anticancer agents in HepG2 cells” (Bioorg Med Chem Lett, 2018).)
